In patent US8492557B2, “Ester pro-drugs of [3-(1-(1H-imidazol-4-yl)ethyl)-2-methylphenyl] methanol” (Allergan, Inc., priority 2010, dated 2013):
Like-named read-outs stand apart in the source and are kept apart here.

Legend:
[1] = target: T1, bovine α1A receptor (Bos taurus, UniProt P18130); experiment: FLIPR Ca+2 influx assay, a1A; format: cell-based; settings: for a1A (eff): efficacy in brackets, norepinephrine is the standard full agonist, HEK 293 cells
T1 sequence (P18130 1-466): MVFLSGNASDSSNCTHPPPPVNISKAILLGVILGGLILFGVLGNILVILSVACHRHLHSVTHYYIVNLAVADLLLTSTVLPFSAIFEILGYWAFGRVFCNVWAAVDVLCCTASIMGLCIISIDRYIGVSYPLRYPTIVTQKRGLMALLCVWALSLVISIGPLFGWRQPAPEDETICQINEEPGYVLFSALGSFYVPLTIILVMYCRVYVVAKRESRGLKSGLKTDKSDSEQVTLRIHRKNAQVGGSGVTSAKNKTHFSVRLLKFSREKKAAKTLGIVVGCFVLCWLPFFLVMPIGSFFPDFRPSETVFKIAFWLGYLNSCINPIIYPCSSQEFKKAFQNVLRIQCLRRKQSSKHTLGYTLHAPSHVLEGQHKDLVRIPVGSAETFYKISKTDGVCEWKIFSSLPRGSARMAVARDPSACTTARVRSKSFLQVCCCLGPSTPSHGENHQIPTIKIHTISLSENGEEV
Procedure: (§1) HEK 293 cells stably expressing the bovine α1A receptor, human alpha 2A receptor and the chimeric G protein Gqi5, are plated in poly-D-lysine coated 384-well plates at 20,000-40,000 cells per well and grown overnight in DMEM supplemented with 10% fetal bovine serum. For FLIPR (fluorometric image plate reader) evaluation, cells are washed twice with HBSS/HEPES Buffer (1× Hanks Buffered Salt Solution, 20 mM HEPES, pH 7.4) prior to the addition of Fluo-4-AM (4 uM Fluo-4-AM, 0.04% pluronic acid in HBSS/HEPES Buffer), a calcium-sensitive dye. Cells are loaded with dye for 40 minutes at 37° C., then washed 4 times with HBSS/HEPES Buffer. For both the agonist and antagonist assay, the test compounds are tested between 0.64 nM-10,000 nM.
(§2) For an agonist assay, the reaction is initiated by the addition of the appropriate dilutions of compounds and the transient calcium signal captured. The peak height of the calcium curve is determined and utilized for calculation of EC50 and efficacy using ActivityBase. Norepinephrine is the standard full agonist used for evaluating alpha-1 and alpha-2 receptor activity.
However, the antagonist blocks the transient calcium signal of the standard agonist norepinephrine in a dose-dependent manner. The residual norepinephrine peak height is compared to the non-antagonized norepinephrine peak height for the determination of % antagonism.

[2] = target: T2, human alpha 2A receptor (Homo sapiens, UniProt P08913); experiment: FLIPR Ca+2 influx assay, a2A; format: cell-based; settings: for a2A (eff): efficacy in brackets, norepinephrine is the standard full agonist, HEK 293 cells
T2 construct: expressed in transfected cells; host or cells: HEK 293
T2 sequence (P08913 1-465): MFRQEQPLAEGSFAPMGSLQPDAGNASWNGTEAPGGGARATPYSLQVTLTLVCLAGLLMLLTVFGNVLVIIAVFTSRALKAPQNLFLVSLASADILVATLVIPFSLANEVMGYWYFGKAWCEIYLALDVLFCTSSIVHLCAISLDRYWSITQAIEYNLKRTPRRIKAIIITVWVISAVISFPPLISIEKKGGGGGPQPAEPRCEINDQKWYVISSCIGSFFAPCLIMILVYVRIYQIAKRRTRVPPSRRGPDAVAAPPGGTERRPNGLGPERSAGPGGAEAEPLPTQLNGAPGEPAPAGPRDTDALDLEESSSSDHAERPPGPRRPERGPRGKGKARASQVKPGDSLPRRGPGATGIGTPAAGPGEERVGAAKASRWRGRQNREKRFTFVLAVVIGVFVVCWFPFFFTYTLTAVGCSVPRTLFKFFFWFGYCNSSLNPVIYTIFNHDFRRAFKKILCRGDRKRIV
Procedure: as §1, §2
The residual norepinephrine peak height is compared to the non-antagonized norepinephrine peak height for the determination of % antagonism.

Cc1c(CO)cccc1[C@H](C)c1c[nH]cn1 [(S)-[3-(1-(1H-imidazol-4-yl)ethyl)-2-methylphenyl]methanol]
EC50 [1]: 340 to 2400 nM | a1A (eff) [1]: 0.7 | EC50 [2]: 25 nM | a2A (eff) [2]: 0.9

Brc1c(NC2=NCCN2)ccc2nccnc12 [Brimonidine]
EC50 ([1]; HEK 293 cells with chimeric G protein Gqi5, agonist assay, tested 0.64 nM-10,000 nM, n/a: Not active, read-out: a1A EC50): 600 to 2400 nM | a1A (eff) [1]: 0.3 | a2A (eff) [2]: 0.95
